Assay results taken from patent US20110045100A1, “Antimalarial Quinolines and Methods of Use Thereof” (GEORGETOWN UNIVERSITY, priority 2008, published 2011).

Assays:
[1] = tested on: Dd2 (chloroquine resistant strain of P. falciparum); experiment: SYBR Green I antiplasmodial assay, strain Dd2; type: cell-based, Plasmodium falciparum; conditions: for activity against the CQ resistant strain Dd2 in comparison with CQ: compared with CQ
From the text: (§1) Bennett T. N.; Paguio, M.; Gligorijevic, B.; Seudieu, C.; Kosar, A. D.; Davidson, E.; Roepe, P. D. Novel, rapid, and inexpensive cell-based quantification of antimalarial drug efficacy. Antimicrob. Agents Chemother. 2004, 48, 1807-1810; Smilkstein, M.; Sriwilaijaroen, N.; Kelly, J. X.; Wilairat, P.; Riscoe, M. Simple and inexpensive fluorescence-based technique for high-throughput antimalarial drug screening. Antimicrob. Agents Chemother. 2004, 48, 1803-1806; and Johnson, J. D.; Dennull, R. A.; Gerena, L.; Lopez-Sanchez, M.; Roncal, N. E.; Waters, N.C. Assessment and continued validation of the malaria SYBR green I-based fluorescence assay for use in malaria drug screening. Antimicrob. Agents Chemother. 2007, 51, 1926-1933. […] Drake, N. L.; Creech, H. J.; Garman, J. A.; Haywood, S. T.; Peck, R. M.; van Hook, J. O.; Walton, E. Synthetic antimalrials. The preparation of certain 4-aminoquinolines. J. Am. Chem. Soc. […] Trans. R. Soc. Trop. Med. Hyg. […] J. Parasitol. 1983, 69, 97-105. The selectivity index provides a quantitative measure of the antimalarial activity against CQR strains relative to that against sensitive strains and thus indicates promising drug discovery leads. […] This can be combined with the introduction of a third basic amino function which should further favor accumulation of the drug within the acidic food vacuole of the parasite.
The antiplasmodial activity of these compounds was measured versus a CQS (HB3) and a CQR (Dd2) strain using a standardized, inexpensive assay based on SYBR Green I intercalation. Bennett T. N.; Paguio, M.; Gligorijevic, B.; Seudieu, C.; Kosar, A. D.; Davidson, E.; Roepe, P. D. Antimicrob. Agents Chemother. 2004, 48, 1807-1810; Smilkstein, M.; Sriwilaijaroen, N.; Kelly, J. X.; Wilairat, P.; Riscoe, M. Antimicrob. Agents Chemother. 2004, 48, 1803-1806; and Johnson, J. D.; Dennull, R. A.; Gerena, L.; Lopez-Sanchez, M.; Roncal, N. E.; Waters, N.C. Antimicrob. Agents Chemother. 2007, 51, 1926-1933. […] De, D.; Krogstad, F. M.; Cogswell, F. B.; Krogstad, D. J. Am. J. Trop. Med. Hyg. 1996, 55, 579-583. […] The basic tertiary amino function in the side chain is commonly believed to be crucial for the accumulation of the drug within the acidic food DV.
(§2) Drug activities were assessed and IC50 were quantified essentially as described previously. Delarue, S.; Girault, S.; Maes, L.; Debreu-Fontaine, M. A.; Labaeid, M.; Grellier, P.; Sergheraert, C. Synthesis and in vitro and in vivo antimalarial activity of new 4-anilinoquinolines. J. Med. Chem. 2001, 44, 2827-2833; and O'Neill, P. M.; Willock, D. J.; Hawley, S. R.; Bray, P. G.; Storr, R. C.; Ward, S. A.; Park, B. K. Synthesis, antimalarial activity, and molecular modeling of tebuquine analogues. J. Med. Chem. 1997, 40, 437-448. The aminoquinolines were diluted using complete media under sterile conditions and plated in a 96 well plate format. Sorbitol synchronized cultures were utilized with >95% of the parasites at the ring stage. Cultures were diluted to give a working stock of 0.5% parasitemia and 2% hematocrit (final hematocrit 1% & 0.5% Parasitemia). The plates were incubated for 72 h at 37° C. After 72 h, 50 μL of 10×SYBR green I dye was added to each well, and the plate was incubated for 1 h at 37° C. Fluorescence was measured at 530 nm (490 nm excitation) using a spectra geminiEM plate reader. Data analysis was performed using sigma plot 9.0 software after downloading data in Excel format.

[2] = tested on: FCB (CQR strain of P. falciparum); experiment: SYBR Green I antiplasmodial assay, strain FCB; type: cell-based, Plasmodium falciparum; conditions: compared with CQ
From the text: as §1, §2

[3] = tested on: CQS and CQR strains of P. falciparum; conditions: cited from earlier work; for antimalarial activity against certain CQS and CQR strains relative to chloroquine, reported by Jensen: diastereomeric mixtures
[4] = tested on: CQS (HB3, GCO3) and CQR (Dd2, FCB) strains of P. falciparum; experiment: SYBR Green I antiplasmodial assay, several CQS and CQR strains; type: cell-based, Plasmodium falciparum; conditions: for activity vs. both CQR and CQS strains relative to 93: FIG. 23
From the text: as §1
Bennett T. N.; Paguio, M.; Gligorijevic, B.; Seudieu, C.; Kosar, A. D.; Davidson, E.; Roepe, P. D. Novel, rapid, and inexpensive cell-based quantification of antimalarial drug efficacy. Antimicrob. Agents Chemother. 2004, 48, 1807-1810; Smilkstein, M.; Sriwilaijaroen, N.; Kelly, J. X.; Wilairat, P.; Riscoe, M. Simple and inexpensive fluorescence-based technique for high-throughput antimalarial drug screening. Antimicrob. Agents Chemother. 2004, 48, 1803-1806; and Johnson, J. D.; Dennull, R. A.; Gerena, L.; Lopez-Sanchez, M.; Roncal, N. E.; Waters, N.C. Assessment and continued validation of the malaria SYBR green I-based fluorescence assay for use in malaria drug screening. Antimicrob. Agents Chemother. 2007, 51, 1926-1933.
Drug activities were assessed and IC50 were quantified essentially as described previously. Delarue, S.; Girault, S.; Maes, L.; Debreu-Fontaine, M. A.; Labaeid, M.; Grellier, P.; Sergheraert, C. Synthesis and in vitro and in vivo antimalarial activity of new 4-anilinoquinolines. J. Med. Chem. 2001, 44, 2827-2833; and O'Neill, P. M.; Willock, D. J.; Hawley, S. R.; Bray, P. G.; Storr, R. C.; Ward, S. A.; Park, B. K. Synthesis, antimalarial activity, and molecular modeling of tebuquine analogues. J. Med. Chem. 1997, 40, 437-448.

Structure (SMILES) | activity against the CQ resistant strain Dd2 in comparison with CQ [1] | potency against FCB in comparison with CQ [2] | other results
CCN(CC)CCCN(CCCN)c1ccnc2cc(Cl)ccc12 [4b, N-(7-Chloro-4-quinolyl)-N-(3-diethylaminopropyl)-1,3-diaminopropane] | clearly superior activity | significantly more potent | –
CCN(CC)CCCN(CC)CCNc1ccnc2cc(Cl)ccc12 [5a, N-(7-Chloro-4-quinolyl)-N-ethyl-N-(3-diethylaminopropyl)-1,2-diaminoethane] | clearly superior activity | significantly more potent | –
CCN(CC)CCCN(CC)CCCNc1ccnc2cc(Cl)ccc12 [5b, N-(7-Chloro-4-quinolyl)-N-ethyl-N-(3-diethylaminopropyl)-1,3-diaminopropane] | clearly superior activity | significantly more potent | –
CCN(CC)CCCN(CC)CCCCCNc1ccnc2cc(Cl)ccc12 [5d, N-(7-Chloro-4-quinolyl)-N-ethyl-N-(3-diethylaminopropyl)-1,5-diaminopentane] | clearly superior activity | significantly more potent | –
CCNC1CCCC(N(CC)c2ccnc3cc(Cl)ccc23)C1 (centres unmarked) [16a, N-(7-Chloro-4-quinolyl)-N,N′-diethyl-1,3-diaminocyclohexane] | clearly superior activity | – | antimalarial activity against certain CQS and CQR strains relative to chloroquine, reported by Jensen [3]: higher antimalarial activity
CC(C)NC1CCCC(Nc2ccnc3cc(Cl)ccc23)C1 (centres unmarked) [16b, N-(7-Chloro-4-quinolyl)-N′-isopropyl-1,3-diaminocyclohexane] | clearly superior activity | – | –
CCNC1CCC(N(CC)c2ccnc3cc(Cl)ccc23)CC1 (centres unmarked) [17a, N-(7-Chloro-4-quinolyl)-N,N′-diethyl-1,4-diaminocyclohexane] | clearly superior activity | significantly more potent | antimalarial activity against certain CQS and CQR strains relative to chloroquine, reported by Jensen [3]: higher antimalarial activity
CC(C)NC1CCC(Nc2ccnc3cc(Cl)ccc23)CC1 (centres unmarked) [17b, N-(7-Chloro-4-quinolyl)-N′-isopropyl-1,4-diaminocyclohexane] | clearly superior activity | significantly more potent | –
CCN(CCNc1ccnc2cc(Cl)ccc12)CCNS(=O)(=O)c1cccc2cccnc12 [compound 33] | – | – | activity against Dd2 in words [1]: relatively high activity
NCCCN(C(=O)c1ccc(F)cc1NCc1ccccc1)c1ccnc2cc(Cl)ccc12 [compound 53, N-(7-Chloro-4-quinolyl)-N-(2-benzylamino-4-fluorobenzoyl)-1,3-diaminopropane] | – | – | activity against Dd2 compared with HB3 [1]: significantly more active against Dd2 than HB3
CCNCCNc1ccnc2cc(Cl)ccc12 [compound 81, N-(7-Chloro-4-quinolyl)-N′-ethyl-1,2-diaminoethane] | – | – | IC50 vs. CQR strains, earlier reports [3]: high IC50
CCNCCCNc1ccnc2cc(Cl)ccc12 [compound 82, N-(7-Chloro-4-quinolyl)-N′-ethyl-1,3-diaminopropane] | – | – | IC50 vs. CQR strains, earlier reports [3]: high IC50
CCN(CC)CCNc1ccnc2cc(Cl)ccc12 [compound 86, N-(7-Chloro-4-quinolyl)-N′,N′-diethyl-1,2-diaminoethane] | – | – | IC50 vs. CQR strains, earlier reports [3]: substantially lower IC50
CCN(CC)CCCNc1ccnc2cc(Cl)ccc12 [compound 87, N-(7-Chloro-4-quinolyl)-N′,N′-diethyl-1,3-diaminopropane] | – | – | IC50 vs. CQR strains, earlier reports [3]: substantially lower IC50
CCN(CC)CCCCCOc1ccnc2cc(Cl)ccc12 [compound 94, O-(7-Chloro-4-quinolyl)-5-(N,N-diethylamino)pentanol] | – | – | IC50 ([4]; Plasmodium falciparum, read-out: IC50 vs. CQR parasites): ~1 µM
CCN(CC)CC(CN(CC)CC)Oc1ccnc2cc(Cl)ccc12 [compound 101, 7-Chloro-4-(1′,3′-bis(diethylamino)-2′-propoxy)quinoline] | – | – | activity vs. both CQR and CQS strains relative to 93 [4]: significantly less active
CCN(CC)CCCCC(CCCCN(CC)CC)Oc1ccnc2cc(Cl)ccc12 [compound 103, 7-Chloro-4-(1′,9′-bis(diethylamino)-5′-nonoxy)quinoline] | – | – | activity vs. both CQR and CQS strains relative to 93 [4]: improved activity
CCNCCCC(C)Nc1ccnc2cc(Cl)ccc12 (centres unmarked) [desethyl CQ, reference compound] | – | – | activity vs. some CQR strains relative to CQ, previous studies ([3]; some CQR strains): lower activity
